Some test systems named below: SK-MEL-28 melanoma; SF-539 CNS; NCI-H23 lung; MDA-MB-231 breast; SR leukemia; HL-60(TB) leukemia; MALME-3M melanoma; HOP-92 NSCLC; MOLT-4 leukemia; A498 renal.
Holding throughout (experiment): NCI anticancer screen, dose series, 48 h

Molecules are shown by their SMILES. “And” between values parts separate entries of the source, which are not always exact repeats. Identical values can stand only once.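 These data come from cells grown in 96-well plates and exposed to compound for 48 hours at five concentrations. GI50 is the concentration that inhibits growth by half. Definition used: TGI = concentration required for complete inhibition of growth.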

For the compound `O=C1c2ccccc2-c2c1c1ccccc1c(=O)n2CCCNCCCCNCCCN1C(=O)c2ccccc2C2C(=O)c3ccccc3C21` (stereo unspecified), the GI50 was 1.19 µM with SK-MEL-28 melanoma; 0.0919 µM with SF-539 CNS; 0.319 µM in the experiment with NCI-H23 lung; 0.284 µM in the experiment on MDA-MB-231 breast; less than 0.005 µM with SR leukemia; 0.203 µM with HL-60(TB) leukemia. Moreover, the GI50 in the experiment on MALME-3M melanoma was 5.27 µM; in the experiment on HOP-92 NSCLC it was 0.00829 µM; in the experiment on MOLT-4 leukemia it was less than 0.005 µM; with A498 renal it was 0.628 µM. Also, the TGI in the experiment on SK-MEL-28 melanoma was determined as 6.76 µM; with SF-539 CNS, 0.759 µM; in the experiment with NCI-H23 lung, 0.999 µM; with MDA-MB-231 breast, 1.04 µM; in the experiment with SR leukemia, 0.00559 µM; with HL-60(TB) leukemia, 1.17 µM. The TGI in the experiment on MALME-3M melanoma came to 35 µM; with HOP-92 NSCLC it was 0.0428 µM; in the experiment on MOLT-4 leukemia it was 0.711 µM; with A498 renal it was 2.21 µM.
Turning to `COc1ccc(/C=C/C(=O)c2ccc(OC)c(OC)c2)cc1O`, the GI50 with SK-MEL-28 melanoma was 12.9 µM; in the experiment with SF-539 CNS, 2.49 µM; in the experiment with NCI-H23 lung it was 9.91 µM; in the experiment on MDA-MB-231 breast, 4.76 µM; with SR leukemia, 0.393 µM; in the experiment on HL-60(TB) leukemia it was 13.9 µM. Also, the GI50 is 15.8 µM in the experiment on MALME-3M melanoma, 2.02 µM in the experiment with HOP-92 NSCLC, 4.32 µM in the experiment with MOLT-4 leukemia and 4.84 µM with A498 renal. For the same compound, the TGI in the experiment on SK-MEL-28 melanoma was 27.4 µM; in the experiment on SF-539 CNS, 7.34 µM; in the experiment with NCI-H23 lung it was 30.4 µM; with MDA-MB-231 breast, 31.8 µM; in the experiment with SR leukemia, greater than 100 µM; in the experiment with HL-60(TB) leukemia it was 52.2 µM. The TGI with MALME-3M melanoma amounted to 31.7 µM; in the experiment on HOP-92 NSCLC it was 13.6 µM; in the experiment with MOLT-4 leukemia, 26.1 µM; in the experiment on A498 renal, 20.3 µM.
`CCCCCCCCC(=O)OCC(CS[As](C)C)OC(=O)CCCCCCCC` (stereo unspecified): the GI50 was 1.12 µM in the experiment on SK-MEL-28 melanoma; 0.49 µM in the experiment with SF-539 CNS; 0.593 µM in the experiment on NCI-H23 lung; 2.7 µM with MDA-MB-231 breast; 1.03 µM in the experiment with SR leukemia; 0.285 µM in the experiment on HL-60(TB) leukemia. Besides, the GI50 was 0.0531 µM with MALME-3M melanoma, 1.93 µM with HOP-92 NSCLC, 0.326 µM in the experiment on MOLT-4 leukemia and 2.38 µM in the experiment with A498 renal. For the same compound, the TGI in the experiment on SK-MEL-28 melanoma worked out at 16.2 µM; in the experiment with SF-539 CNS, 1.28 µM; in the experiment with NCI-H23 lung it was 1.5 µM; with MDA-MB-231 breast it was 18.4 µM; in the experiment on SR leukemia, 5.41 µM; in the experiment with HL-60(TB) leukemia, 1.78 µM. Moreover, the TGI was 0.708 µM in the experiment on MALME-3M melanoma, 18.3 µM in the experiment with HOP-92 NSCLC, 2.21 µM with MOLT-4 leukemia and 10.7 µM with A498 renal.
As for `OCc1ccc(N2CCc3ccccc3C2)cc1Cl`, the GI50 was 23 µM in the experiment on SK-MEL-28 melanoma; 41.9 µM with SF-539 CNS; 13.9 µM in the experiment on NCI-H23 lung; 12.4 µM in the experiment with MDA-MB-231 breast; 21.9 µM in the experiment with SR leukemia; 17.9 µM with HL-60(TB) leukemia. Further, the GI50 with MALME-3M melanoma is 20.3 µM; in the experiment on HOP-92 NSCLC, 0.0448 µM; in the experiment on MOLT-4 leukemia it was 27.2 µM; with A498 renal, less than 0.015 µM. Besides, the TGI with SK-MEL-28 melanoma was greater than 82.9 µM; in the experiment on SF-539 CNS, greater than 100 µM; in the experiment on NCI-H23 lung, 44 µM; with MDA-MB-231 breast it was 40.8 µM; in the experiment on SR leukemia, greater than 76.4 µM; in the experiment on HL-60(TB) leukemia, 61.4 µM. Moreover, the TGI in the experiment with MALME-3M melanoma was 56.6 µM; in the experiment on HOP-92 NSCLC it was 9.28 µM; with MOLT-4 leukemia, greater than 78.7 µM; in the experiment on A498 renal, 0.0355 µM.
Take `Cc1c(O)c2c(c(O)c1Br)C(=O)C=CC2=O`: the GI50 in the experiment with SK-MEL-28 melanoma is 1.59 µM; in the experiment on SF-539 CNS it was 1.68 µM; in the experiment on NCI-H23 lung, 1.48 µM; in the experiment with MDA-MB-231 breast, 1.58 µM; in the experiment with MALME-3M melanoma, 0.552 µM; with HOP-92 NSCLC, 0.27 µM. The TGI with SK-MEL-28 melanoma is 2.33 µM and 3.07 µM; in the experiment with SF-539 CNS, 1.66 µM and 3.1 µM; with NCI-H23 lung, 2.09 µM and 3.28 µM; in the experiment with MDA-MB-231 breast it was 3.01 µM and 3.48 µM; in the experiment with SR leukemia it was 0.73 µM; in the experiment on HL-60(TB) leukemia, 0.113 µM and 0.016 µM. Also, the TGI in the experiment with MALME-3M melanoma was 0.776 µM and 1.81 µM; in the experiment with HOP-92 NSCLC, 1.48 µM and 0.887 µM; with MOLT-4 leukemia, 0.101 µM; in the experiment with A498 renal, 3.18 µM and 3.87 µM.
Consider `COc1ccc(C2C(C)C(=O)C(C)C(c3ccc(OC)cc3)N2N=O)cc1` (stereo unspecified), for which the GI50 in the experiment with SK-MEL-28 melanoma is greater than 750 µM; with SF-539 CNS, 18 µM and 41.3 µM; in the experiment on NCI-H23 lung, greater than 750 µM; in the experiment on HL-60(TB) leukemia it was greater than 750 µM; with HOP-92 NSCLC, greater than 47.9 µM. The TGI with SK-MEL-28 melanoma was greater than 1000 µM; in the experiment with SF-539 CNS it was 46.8 µM and 341 µM and 222 µM; with NCI-H23 lung, > 750 µM and 713 µM; with MDA-MB-231 breast it was 132 µM; with SR leukemia, greater than 1000 µM; with HL-60(TB) leukemia it was greater than 1000 µM. The TGI is greater than 700 µM in the experiment on MALME-3M melanoma; > 80.9 µM and 190 µM and 149 µM in the experiment on HOP-92 NSCLC; greater than 1000 µM in the experiment with MOLT-4 leukemia; > 40.9 µM and 424 µM in the experiment with A498 renal.
In the case of `C[C@@H](Oc1ccc(C(=O)NS(=O)(=O)C(C)(C)C)cc1C(F)(F)F)c1ccc(Oc2ccccc2)cn1`, the GI50 was 6.63 µM with SK-MEL-28 melanoma; 2.1 µM in the experiment on SF-539 CNS; 5.14 µM in the experiment on NCI-H23 lung; 3.6 µM with MDA-MB-231 breast; 1.29 µM in the experiment on SR leukemia; 2.4 µM with HL-60(TB) leukemia. The GI50 with MALME-3M melanoma is 10.8 µM; in the experiment with HOP-92 NSCLC, 1.78 µM; with MOLT-4 leukemia it was 3.65 µM; in the experiment with A498 renal it was 1.91 µM. For the same compound, the TGI was 21.8 µM in the experiment on SK-MEL-28 melanoma; 5.62 µM with SF-539 CNS; 23.3 µM in the experiment with NCI-H23 lung; 15.5 µM in the experiment with MDA-MB-231 breast; 13.7 µM in the experiment on SR leukemia; 8.23 µM in the experiment on HL-60(TB) leukemia. Further, the TGI in the experiment on MALME-3M melanoma turned out to be 26.7 µM; in the experiment on HOP-92 NSCLC, 11.7 µM; with MOLT-4 leukemia, 24.9 µM; in the experiment with A498 renal, 6.74 µM.

These data come from PubChem BioAssay (NCI).
